The subject of assay [1] is mouse primary spiral ganglion neurons. The experiment in a line: Reversal of FAM19A5-induced inhibition of neurite outgrowth. The settings on record: FAM19A5 protein 10 μM alone, treated 0 DIV, NF200 staining at 3 DIV. Format: cell-based. Here is the method: Sprial ganglion neuron were cultured in culture media consisting of high-glucose (4.5 mg/mL) DMEM, 0.1 mg/ml penicillin, 0.1 mg/mL streptomycin, N2 supplement, and 10 µg/mL insulin and was designated here as “5K” because in this media, [K+]=5.4 mM. A depolarizing media, designated as “30K,” in which Na was replaced with equimolar K to raise [K] to 30 mM while maintaining osmolarity was also used.
Dissociated spiral ganglion cell cultures were prepared from postnatal day 4-5 (P4-5) cochleae and maintained using a procedure modified from the methods described by Bok et al., J Neurosci 23 (3): 777-87 (2003), which is incorporated herein by reference in its entirety. […]
Neurite outgrowth was quantified by measuring the total length of neurites per neuron. Neurons were stained with NF200 at either 2 or 3 DIV, and neurite lengths were measured using the Fiji (Image J). Individual neurons were manually selected, and neurite lengths were determined using the Simple Neurite Tracer plugin.
Briefly, mouse primary spiral ganglion neurons (cultured and processed as described in Example 11) were treated with a FAM19A5 protein (10 μM) alone or in combination with an anti-FAM19A5 antibody (1-30) (100 nM) at 0 DIV (day in vitro). […] Then, at 3 DIV, the neurons were stained for neurofilament protein (NF200) expression and the average neurite length quantified.

The test system of assay [2] is inner hair cells of mouse cochlear explant. The experiment in a line: Reversal of FAM19A5-induced inhibition of synaptogenesis (CtBP2 puncta). Format: cell-based. The settings on record: FAM19A5 protein 1 μM alone, treated 1 DIV, stained 2 DIV. The protocol: Cochlear explant were cultured in medium consisting of plating media, which consist of Neurobasal media (Invitrogen), 1% N2 supplement, and 10 μg/mL Ampicillin with culture media with additional 1% FBS.
Postnatal day 4-5 (P4-5) C57BL/6 mice were sacrificed for inner ear dissection. Mouse head was bisected, and brain tissue was removed. Cochlea was carefully separated the from the extraneous bones in ice-cold HBSS (5 mM HEPES/1.3 mM CaCl2), 0.9 mM MgCl2, pH 7.4) or External solution (1.2 mM CaCl2), 1 mM MgCl2, 5 mM HEPES in HBSS). Then the stria vascularis and spiral bone plate was removed, and cochlea was cut into two to three sections. […]
Mouse cochlear explant cultures were treated with FAM19A5, FAM19A5 combined with a FAM19A5 antagonist (e.g., described herein, e.g., 1-30 antibody), or a FAM19A5 antagonist (e.g., described herein, e.g., 1-30 antibody) alone at 1 DIV to determine the level of synaptogenesis at 2 DIV by immunostaining CtBP2, a ribbon synapse marker. To quantify the number of CtBP2 puncta of individual inner hair cells, z-stack confocal images were exported in “multi-page” and the number of CtBP2 puncta from each individual inner hair cells were measured using ROI manger and multi-point tool from Fiji (Image J). Number of CtBP2 puncta from five individual inner hair cells were counted per image and 3 z-stack images were measured from each treatment group. […]

This note sets out measurements from US20260265360A1, “USE OF ANTI-FAM19A5 ANTAGONISTS FOR TREATING HEARING DISORDERS” (NEURACLE SCIENCE CO., LTD., priority 2023, published 2026).

For “FAM19A5 protein: FAM19A5 protein added to neuron and cochlear explant cultures to inhibit neurite outgrowth and synaptogenesis”, the “total neurite length vs non-treated cells” value in assay [1] was “significantly reduced”. The “number of CtBP2 puncta in inner hair cells vs control group” value in assay [2] is on record as “significantly decreased”.
